The record followed here is patent publication US7345091B2, “Carotenoid ether analogs or derivatives for the inhibition and amelioration of disease” (Cardax Pharmaceuticals, Inc., priority 2002, dated 2008).

Structures are written as SMILES. Counter-ions that a name gives are not always drawn.

The test system of one test is male Sprague-Dawley rats. Description: Infarct size reduction after coronary artery occlusion/reperfusion. Format: in vivo, rat. The settings on record: for relationship of infarct size reduction / myocardial salvage to dose: 25, 50, 75 mg/kg I.V. As for the experimental part:
FIG. 4, FIG. 25, and FIG. 26 depict graphical representations of the reduction of infarct size in male Sprague-Dawley rats. Male Sprague-Dawley rats were pre-treated with the disodium salt disuccinate astaxanthin derivative XVI (as the mixture of stereoisomers) in aqueous solution before performing an occlusion and inducing a myocardial infarction. Male Sprague-Dawley rats (175-200 grams) were anaesthetized with 100 mg/kg of Inactin, instrumented, and the heart exposed. […] The hearts were washed in buffer and incubated in triphenyltetrazolium chloride (TTC) staining solution kept at 37° C. in phosphate buffer at pH of 7.40. Infarct size (IS) was expressed as a % of the area at risk (IS/AAR, %). Systemic blood pressure, heart rate, blood gases and body temperature were monitored throughout the experiment, and temperature and blood gases were tightly controlled at normal physiological levels. 25, 50, or 75 mg/kg of the disodium salt disuccinate astaxanthin derivative XVI or sterile saline vehicle was administered I.V. by tail vein injection every day for 4 days prior to the infarct experiment on day 5 and subsequent infarct size determination.

The test system of test [1] is male New Zealand white rabbits. Briefly: Experimental infarct size after parenteral administration. Format: in vivo, rabbit. The source says: (§1) The influence of parenteral administration of the disodium disuccinate astaxanthin derivative (XVI) on induced infarct size and induced levels of circulating C-reactive protein (CRP) in rabbits was investigated using the methods of Barrett et al. (2002) with slight modifications. The purpose of the current study was to investigate the ability of the disodium disuccinate astaxanthin derivative (XVI) to reduce inflammation as measured by CRP in the setting of experimental myocardial ischemia-reperfusion injury in the rabbit heart. […] Therefore, reduction of circulating CRP levels, together with the reduction(s) in infarct size previously noted with Cardax™ in rodents, would form a powerful anti-inflammatory therapeutic modality in the acute coronary syndrome setting.
In brief, male New Zealand white rabbits (2.25-2.5 kg) were used for the study. The acute phase inflammatory response was induced by subcutaneous injection of four aliquots (0.5 mL each) of 1% croton oil in corn oil beginning on the second day of pre-treatment with Cardax™. […]
At the completion of the reperfusion phase of the protocol, the hearts were removed and cannulated by the aorta on the Langendorff perfusion apparatus. […] Total area at risk was expressed as a percentage of the left ventricle. Infarct size was then expressed as a percentage of area at risk.

The test system of another test is C-reactive protein (CRP). Description: Circulating C-reactive protein levels (ELISA) in croton oil-stimulated infarct model. In kind it is in vivo, rabbit. Particulars: 50 mg/kg IV for 4 days; 1% croton oil; sample at time of reperfusion; controls +23.5%.
Excerpt: as §1
In brief, male New Zealand white rabbits (2.25-2.5 kg) were used for the study. The acute phase inflammatory response was induced by subcutaneous injection of four aliquots (0.5 mL each) of 1% croton oil in corn oil beginning on the second day of pre-treatment with Cardax™. Either Cardax™ (at 50 mg/kg IV by ear vein injection) in water or equal volumes of sterile saline were given once per day for 4 days prior to experimental infarction on day 5. The time course of increases in circulating CRP levels were obtained as described previously (Barret et al. 2002), using an ELISA-based method with anti-rabbit CRP antibodies. […]
Background: ELISA stands for enzyme-linked immunosorbent assay.

In turn, `CC1=C(/C=C/C(C)=C/C=C/C(C)=C/C=C/C=C(C)/C=C/C=C(C)/C=C/C2=C(C)C(=O)C(OC(=O)CCC(=O)O)CC2(C)C)C(C)(C)CC(OC(=O)CCC(=O)O)C1=O` (racemic) [XVI, Disodium Salt of the Disuccinic Acid Ester of Astaxanthin] gave a mean myocardial salvage in the test on male Sprague-Dawley rats (75 mg/kg I.V. daily for 4 days before 30 min occlusion / 2 hours reperfusion) of 56%. Besides, the “relationship of infarct size reduction / myocardial salvage to dose” value in the test with male Sprague-Dawley rats is “increased linearly, and significantly, with dose”; with male Sprague-Dawley rats (listed as Cardax™), “linear relationship between dose and infarct size reduction”. Besides, the “reductions in infarct size” value in test [1] (50 mg/kg IV once per day for 4 days, 30 min occlusion / 180 min reperfusion) was “approximately 55.4%”. Moreover, in test [1] (same dose and identical pre-treatment schedule), the “increase in infarct size reduction in rabbit vs rodents” value was found to be 38%. Also, in the test on C-reactive protein (CRP), the “mean change in circulating CRP levels from baseline” value was −15.7%.
